In test [1] the target is T1, human endo-6-O-sulfatase 1 (Sulf-1) (Homo sapiens, UniProt Q8IWU6).
T1 construct: gene SULF1
As to the kind of experiment: fluorescent 4-MUS hydrolysis assay with purified human Sulf-1; kinetic fit to competitive model (IC50 […]). It counts as biochemical.

Test [2] deals with T1, human endo-6-O-sulfatase 1 (Sulf-1). As to the kind of experiment: fluorescent 4-MUS hydrolysis assay with purified human Sulf-1. The test is classed as biochemical.

The values that follow come from publication PMC9326219, “Design and Synthesis of 1-O- and 6′-C-Modified Heparan Sulfate Trisaccharides as Human Endo-6-O-Sulfatase 1 Inhibitors” (Frontiers in Chemistry, 2022).

By Ki is commonly meant the dissociation constant of the complex between target and ligand, obtained from inhibition or displacement. `CO[C@@H]1O[C@@H](C(=O)O)[C@@H](O[C@H]2O[C@H](COS(N)(=O)=O)[C@@H](O[C@@H]3O[C@@H](C(=O)O)[C@@H](O)[C@H](O)[C@H]3OS(=O)(=O)O)[C@H](O)[C@H]2NS(=O)(=O)O)[C@H](O)[C@H]1OS(=O)(=O)O` [compound 5, IdoA2OS-GlcNS6OSO2NH2-IdoA2OS-OMe] came in with an inhibition constant Ki in test [1] of 140 nM.
The IC50 is the concentration that inhibits the measured activity by half. `CO[C@@H]1O[C@@H](C(=O)O)[C@@H](O[C@H]2O[C@H](CNS(=O)(=O)O)[C@@H](O[C@@H]3O[C@@H](C(=O)O)[C@@H](O)[C@H](O)[C@H]3OS(=O)(=O)O)[C@H](O)[C@H]2NS(=O)(=O)O)[C@H](O)[C@H]1OS(=O)(=O)O` [compound 6, IdoA2OS-GlcNS6NS-IdoA2OS-OMe] registered an IC50 in test [2] of 4600 nM.
